This note sets out measurements from US7875618B2, “Substituted imidazo[1,5-a]quinoxalines useful as inhibitors of phosphodiesterase 10 for the treatment of neurological and other disorders” (Wyeth, priority 2007, dated 2011).

Bounds are passed on as bounds.

The first test addresses PDE10 from pig striatum (Sus scrofa, UniProt A0A287B941). The test can be described thus: Inhibition of PDE10 from pig striatum ([3H]-cAMP SPA, Methods A and B). The test is classed as biochemical. The note with it: PDE10 pig. As for the experimental part: Striatum from male Wistar rats (180-200 g), male hybrid pigs (150 kg) and male guinea pigs (CRL (HA), 500 g) respectively were collected and frozen at −70° C. At the day of preparation 0.5 g striatum was homogenised in 10 ml 50 mM Tris/Mg-buffer at 4° C. and centrifuged for one hour at 100000 g. The supernatant is called the cytosolic fraction and was removed and stored on ice. The pellet was resuspended in the same buffer, but containing 1% Triton and incubated for 45 min at 4° C. Both fractions were independently applied onto a 5 ml Hi Trap™ QHP column at the Äkta-FPLC. After washing the columns the bound PDE protein was eluted with an increasing sodium chloride gradient (0 mM-500 mM sodium chloride) in 50 mM Tris/Mg-buffer at 4° C. for the cytosolic fraction and in the presence of 1% Triton for the membrane fraction. […] The fractions with PDE10-activity were pooled and frozen in aliquots until use at −20° C. PDE10 activity was determined in a one step procedure in microtiter plates. […] Nonspecific activity was tested without the enzyme. The reaction was initiated by addition of the substrate solution and was carried out at 37° C. for 30 minutes. Enzymatic activity was stopped by addition of 25 μl YSi-SPA-beads (Amersham-Pharmacia). One hour later the mixture was measured in a liquid scintillation counter for microtiter plates (Microbeta Trilux). To pipette the incubation mixture a robot Biomek (Fa. Beckman) is used. […] For determination of IC50 values the Hill-plot, 2-parameter-model, was used. […] Striatum from male hybrid pigs (150 kg) were collected and frozen at −70° C. At the day of preparation 0.5 g striatum was homogenised in 10 ml 50 mM Tris/Mg-buffer at 4° C. and centrifuged for one hour at 100000 g. The supernatant was removed and the pellet was resuspended in the same buffer, but containing 1% Triton and incubated for 45 min at 4° C. The membrane fraction was applied onto a 5 ml Hi Trap™ QHP column at the Äkta-FPLC. After washing the column the bound PDE protein was eluted with an increasing sodium chloride gradient (0 mM-500 mM sodium chloride) in 50 mM Tris/Mg-buffer at 4° C. in the presence of 1% Triton. […] The fractions with PDE10-activity were pooled and frozen in aliquots until use at −20° C. PDE10 activity was determined in a one step procedure in microtiterplates. […] Nonspecific activity was tested without the enzyme. The reaction was initiated by addition of the substrate solution and was carried out at 37° C. for 30 minutes. Enzymatic activity was stopped by addition of 25 μl YSi-SPA-beads (Amersham-Pharmacia). One hour later the mixture was measured in a liquid scintillation counter for microtiterplates (Microbeta Trilux). To pipette the incubation mixture a robot Biomek (Fa. Beckman) is used. […] For determination of IC50 values the Hill-plot, 2-parameter-model, was used.
With `COc1ccccc1-c1nc(C)c2c(C)nc3ccc(F)cc3n12` [Example 23, 8-Fluoro-1-(2-methoxyphenyl)-3,4-dimethylimidazo[1,5-a]quinoxaline], the IC50 was 10 to 100 nM. In turn, `Cc1nc(-c2ccccc2OC(F)(F)F)n2c1c(C)nc1ccc(F)cc12` [Example 28, 8-Fluoro-3,4-dimethyl-1-[2-(trifluoromethoxy)phenyl]imidazo[1,5-a]quinoxaline] had an IC50 of 10 to 100 nM. With `COc1cccc(-c2nc(C)c3c(C)nc4ccc(F)cc4n23)c1` [Example 24, 8-Fluoro-1-(3-methoxyphenyl)-3,4-dimethylimidazo[1,5-a]quinoxaline], the IC50 was not above 10 nM. On the same count and under the same terms, in the case of `Cc1nc(-c2ccccc2Cl)n2c1c(C)nc1cc(OCc3c(F)cccc3F)ccc12` [Example 57, 1-(2-Chloro-phenyl)-7-(2,6-difluorobenzyloxy)-3,4-dimethyl-imidazo(1,5-a)quinoxaline] it was not above 10 nM.

`Cc1noc(C)c1-c1nc(C)c2c(C)nc3ccc(F)cc3n12` [Example 30, 1-(3,5-Dimethylisoxazol-4-yl)-8-fluoro-3,4-dimethylimidazo[1,5-a]quinoxaline]: the IC50 is not below 100 nM. As to `CCc1nc(C)c2c(Cl)nc3ccc(N4CCCCC4)cc3n12` [Intermediate B2, 4-Chloro-1-ethyl-3-methyl-8-piperidin-1-yl-imidazo(1,5-a)quinoxaline], the IC50 fell in the range of 10 to 100 nM. In the case of `CCCc1nc(C)c2c(C)nc3ccccc3n12` [Example 9, 3,4-Dimethyl-1-propyl-imidazo(1,5-a)quinoxaline], the IC50 lay within 10 to 100 nM. As for `Cc1nc(-c2cc(Cl)ccc2Cl)n2c1c(C)nc1ccc(F)cc12` [Example 19, 1-(2,5-Dichlorophenyl)-8-fluoro-3,4-dimethylimidazo[1,5-a]quinoxaline], the IC50 is 10 to 100 nM. The compound `Cc1nc(-c2cc(Cl)cc(Cl)c2)n2c1c(C)nc1ccc(F)cc12` [Example 20, 1-(3,5-Dichlorophenyl)-8-fluoro-3,4-dimethylimidazo[1,5-a]quinoxaline] came in with an IC50 of 10 to 100 nM. Take `COc1cc(F)cc2c1nc(C)c1c(C)nc(-c3ccc(F)c(C(N)=O)c3)n12` [Example 86, 2-fluoro-5-(8-fluoro-6-methoxy-3,4-dimethylimidazo[1,5-a]quinoxalin-1-yl)benzamide]: the IC50 is not above 10 nM. `Cc1nc(-c2cccc(Cl)c2)n2c1c(C)nc1ccc(F)cc12` [Example 21, 1-(3-Chlorophenyl)-8-fluoro-3,4-dimethylimidazo[1,5-a]quinoxaline] had an IC50 of 10 to 100 nM. `Cc1nc(-c2ccccc2Cl)n2c1c(N)nc1ccc(F)cc12` [Example 8, 1-(2-Chlorphenyl)-8-fluoro-3-methyl-imidazo(1,5-a)quinoxalin-4-ylamine] registered an IC50 not above 10 nM. `CCc1nc(C)c2c(N)nc3ccc(N4CCCCC4)cc3n12` [Example 1, 1-Ethyl-3-methyl-8-piperidin-1-yl-imidazo(1,5-a)quinoxalin-4-ylamine] displayed an IC50 not below 100 nM. `Cc1nc(C2CCCCC2)n2c1c(N)nc1ccc(F)cc12` [Example 2, 1-Cyclohexyl-8-fluoro-3-methyl-imidazo(1,5-a)quinoxalin-4-yl-amine] registered an IC50 of 10 to 100 nM. As for `Cc1nc(-c2ccc(F)cc2F)n2c1c(C)nc1ccc(F)cc12` [Example 22, 1-(2,4-Difluorophenyl)-8-fluoro-3,4-dimethylimidazo[1,5-a]quinoxaline], the 50% inhibitory concentration (IC50) fell in the range of 10 to 100 nM. Regarding `Cc1nc(-c2ccccc2C(F)(F)F)n2c1c(C)nc1ccc(F)cc12` [Example 27, 8-Fluoro-3,4-dimethyl-1-[2-(trifluoromethyl)phenyl]imidazo[1,5-a]quinoxaline], the IC50 lay in the range of 10 to 100 nM. `Cc1ccccc1-c1nc(C)c2c(C)nc3ccc(F)cc3n12` [Example 25, 8-Fluoro-3,4-dimethyl-1-(2-methylphenyl)imidazo[1,5-a]quinoxaline] had an IC50 not above 10 nM. `CCCc1nc(C)c2c(OC)nc3ccc(F)cc3n12` [Example 18, 8-Fluoro-4-methoxy-3-methyl-1-propyl-imidazo(1,5-a)quin-oxaline] showed an IC50 of 10 to 100 nM. Consider `Cc1cccc(-c2nc(C)c3c(C)nc4ccc(F)cc4n23)c1` [Example 26, 8-Fluoro-3,4-dimethyl-1-(3-methylphenyl)imidazo[1,5-a]quinoxaline], for which the IC50 was in the range of 10 to 100 nM. Still for that read-out and setting: in the case of `Cc1nc(-c2ccccc2Cl)n2c1c(Cl)nc1ccc(F)cc12` [Intermediate B8] it was not above 10 nM.

The next test deals with T1, human recombinant PDE10A (Homo sapiens, UniProt Q9Y233).
T1 construct: made in house; host or cells: SF21 insect cells (baculovirus)
T1 sequence (Q9Y233 1-779 isoform Q9Y233-1): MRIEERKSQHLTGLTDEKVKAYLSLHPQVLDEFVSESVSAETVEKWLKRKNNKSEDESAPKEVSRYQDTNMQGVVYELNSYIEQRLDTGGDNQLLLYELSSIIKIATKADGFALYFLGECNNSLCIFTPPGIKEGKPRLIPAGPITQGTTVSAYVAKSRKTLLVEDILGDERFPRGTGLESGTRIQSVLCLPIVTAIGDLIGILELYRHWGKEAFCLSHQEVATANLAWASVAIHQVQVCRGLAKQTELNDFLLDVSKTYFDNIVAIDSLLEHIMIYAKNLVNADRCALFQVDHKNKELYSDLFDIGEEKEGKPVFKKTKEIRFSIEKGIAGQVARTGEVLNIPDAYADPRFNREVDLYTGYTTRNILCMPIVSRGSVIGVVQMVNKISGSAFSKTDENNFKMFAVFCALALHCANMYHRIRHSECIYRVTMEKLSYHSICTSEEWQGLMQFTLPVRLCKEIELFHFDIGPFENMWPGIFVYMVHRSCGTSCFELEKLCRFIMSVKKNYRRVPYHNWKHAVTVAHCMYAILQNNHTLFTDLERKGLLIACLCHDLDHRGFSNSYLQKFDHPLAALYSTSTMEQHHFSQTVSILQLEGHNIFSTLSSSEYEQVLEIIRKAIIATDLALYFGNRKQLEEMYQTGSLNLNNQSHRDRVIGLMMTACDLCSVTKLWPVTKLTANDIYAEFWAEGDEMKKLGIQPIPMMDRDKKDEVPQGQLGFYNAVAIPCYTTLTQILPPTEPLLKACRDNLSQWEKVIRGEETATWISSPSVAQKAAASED
The experiment in a line: Inhibition of human recombinant PDE10A ([3H]-cAMP SPA, Method B). It is filed as biochemical. Particulars: read-out: PDE10 inhibition IC50 [nM] PDE10A human. How it is done: The gene was than inserted into a baculovirus vector, ligated with the baculovirus DNA. The enzyme-protein was expressed in SF21-cells. The enzyme was isolated from these cells by harvesting the cells by a centrifugation at 200 g to collect the cells. The cells were resuspended in 50 mM Tris-HCl/5 mM MgCl2 buffer (pH=7.4) and lysed by a sonication of the cells. The cytosolic PDE10A was obtained by a centrifugation at 48000 g for 1 h in the supernatant and stored at −70° C. PDE10 activity was determined in a one step procedure in microtiterplates. […] Nonspecific activity was tested without the enzyme. The reaction was initiated by addition of the substrate solution and was carried out at 37° C. for 30 minutes. Enzymatic activity was stopped by addition of 25 μl YSi-SPA-beads (Amersham-Pharmacia). One hour later the mixture was measured in a liquid scintillation counter for microtiterplates (Microbeta Trilux). To pipette the incubation mixture a robot Biomek (Fa. Beckman) is used. […] For determination of IC50 values the Hill-plot, 2-parameter-model, was used.
With `Cc1nc(-c2ccccc2OC(F)(F)F)n2c1c(C)nc1ccc(F)cc12` [Example 28, 8-Fluoro-3,4-dimethyl-1-[2-(trifluoromethoxy)phenyl]imidazo[1,5-a]quinoxaline], the IC50 was not below 100 nM. Same read-out and setting: as for `Cc1nc(-c2ccccc2Cl)n2c1c(C)nc1cc(OCc3c(F)cccc3F)ccc12` [Example 57, 1-(2-Chloro-phenyl)-7-(2,6-difluorobenzyloxy)-3,4-dimethyl-imidazo(1,5-a)quinoxaline], the figure is 10 to 100 nM; as for `COc1cc(F)c2nc(C)c3c(C)nc(-c4ccc(F)c(C(N)=O)c4)n3c2c1` [Example 78, 2-fluoro-5-(6-fluoro-8-methoxy-3,4-dimethylimidazo[1,5-a]quinoxalin-1-yl)benzamide], not above 10 nM; as for `Cc1nc(-c2ccncc2)n2c1c(C)nc1ccc(F)cc12` [Example 143, 8-fluoro-3,4-dimethyl-1-pyridin-4-ylimidazo[1,5-a]quinoxaline], not below 100 nM.

As for `CCOc1cc2nc(C)c3c(C)nc(-c4ccccc4C)n3c2cc1Cl` [Example 132, 8-Chloro-7-ethoxy-3,4-dimethyl-1-(2-methylphenyl)imidazo[1,5-a]quinoxaline], the IC50 fell in the range of 10 to 100 nM.

As for `Cc1nn(C)c(C)c1-c1nc(C)c2c(C)nc3ccc(Cl)cc3n12` [Example 69, 8-chloro-3,4-dimethyl-1-(1,3,5-trimethyl-1H-pyrazol-4-yl)imidazo[1,5-a]quinoxaline], the IC50 lay within 10 to 100 nM. As to `COc1ccncc1-c1nc(C)c2c(C)nc3ccc(C(F)(F)F)cc3n12` [Example 123, 1-(4-methoxypyridin-3-yl)-3,4-dimethyl-8-(trifluoromethyl)imidazo[1,5-a]quinoxaline], the IC50 fell in the range of 10 to 100 nM. Same read-out and setting: as for `Cc1nc(F)ccc1-c1nc(C)c2c(C)nc3ccc(OC(F)(F)F)cc3n12` [Example 117, 1-(6-fluoro-2-methylpyridin-3-yl)-3,4-dimethyl-8-(trifluoromethoxy)imidazo[1,5-a]quinoxaline], the figure is 10 to 100 nM; as for `COc1ccc2nc(C)c3c(C)nc(-c4cc(C(N)=O)ccc4F)n3c2c1` [Example 114, 4-fluoro-3-(8-methoxy-3,4-dimethylimidazo[1,5-a]quinoxalin-1-yl)benzamide], not above 10 nM; as for `Cc1nc(-c2cc(C(N)=O)ccc2F)n2c1c(C)nc1ccc(F)cc12` [Example 137, 4-fluoro-3-(8-fluoro-3,4-dimethylimidazo[1,5-a]quinoxalin-1-yl)benzamide], 10 to 100 nM.

Regarding `Cc1ccccc1-c1nc(C)c2c(C)nc3ccc(Cl)cc3n12` [Example 63, 8-chloro-3,4-dimethyl-1-(2-methylphenyl)imidazo[1,5-a]quinoxaline], the IC50 is not above 10 nM. `Cc1ccc(C(N)=O)cc1-c1nc(C)c2c(C)nc3ccc(F)cc3n12` [Example 134, 3-(8-fluoro-3,4-dimethylimidazo[1,5-a]quinoxalin-1-yl)-4-methylbenzamide]: the IC50 lay within 10 to 100 nM. As to `COc1nc(C)c2c(C)nc3c(F)cc(F)cc3n12` [Example 73, 6,8-difluoro-1-methoxy-3,4-dimethylimidazo[1,5-a]quinoxaline], the IC50 was not below 100 nM. The same measure, in the same setting: in the case of `Cc1ccccc1-c1nc(C)c2c(C)nc3c(F)cc(F)cc3n12` [Example 70, 6,8-difluoro-3,4-dimethyl-1-(2-methylphenyl)imidazo[1,5-a]quinoxaline] it was not above 10 nM.

As a reminder, the IC50 is the midpoint of a concentration-inhibition curve.
